Experimental data from patent US20110229450A1, “ENZYMES AND METHODS FOR DEGRADING S-TRIAZINES AND DIAZINES” (Commonwealth Scientific and industrial Research Organisation, priority 2008, published 2011).
Substitutions are numbered along the chain they refer to. Names may count otherwise. Where two headings read alike, the source gives them in different places.

B1: TrzN Wildtype: Wild-type TrzN triazine hydrolase, SEQ ID NO:1; codon optimised open reading frame TrzNco, SEQ ID NO:2 (protein, listed as Arthrobacter aurescens)
chain: MILIRGLTRVITFDDQERELEDADILIDGPKIVAVGKDLSDRSVSRTIDGRGMIALPGLINSHQHLYEGAMRAIPQLERVTMASWLEGVLTRSAGWWRDGKFGPDVIREVARAVLLESLLGGITTVADQHLFFPGATADSYIDATIEAATDLGIRFHAARSSMTLGKSEGGFCDDLFVEPVDRVVQHCLGLIDQYHEPEPFGMVRIALGPCGVPYDKPELFEAFAQMAADYDVRLHTHFYEPLDAGMSDHLYGMTPWRFLEKHGWASDRVWLAHAVVPPREEIPEFADAGVAIAHLIAPDLRLGWGLAPIREYLDAGITVGFGTTGSASNDGGNLLGDLRLAALAHRPADPNEPEKWLSARELLRMATRGSAECLGRPDLGVLEEGRAADIACWRLDGVDRVGVHDPAIGLIMTGLSDRASLVVVNGQVLVENERPVLADLERIVANTTALIPKNL
B2: T91S (protein)
chain: B1 chain with T91S
B3: S161G (protein)
chain: B1 chain with S161G
B4: P210A (protein)
chain: B1 chain with P210A
B5: L335M (protein)
chain: B1 chain with L335M
B6: D38N (protein)
chain: B1 chain with D38N

Legend:
TrzN cc3.2 = assay: Substrate range: hydrolysis of triazines by purified TrzN cc3.2 (loss of absorbance at 264 nm); type: biochemical; conditions: for Hydrolysis by TrzN cc3.2: purified enzyme; for Relative Activity in TrzN cc3.2: specific activity at 100 μM substrate and 41 nM TrzN cc3.2, ametryn = 1
TrzN = conditions: from Shapir et al. (2006); ametryn = 1; cited from earlier work
Apo-TrzNcc3.2 = assay: Saturation of Apo-TrzNcc3.2 with Zn^2+; type: binding
[1] = read-out: Kd for zinc; cited from earlier work
[2] = from 5 litres; Shapir et al. (2005); cited from earlier work
[3] = type: cell-based, E. coli strain BL21 λDE3; conditions: for Time to clear: 1% atrazine (w/v), 1 mM IPTG LB agar plates, 37° C., BL21 λDE3 pETcc2; for atrazine dechlorinase activity / clearing rate after substitution, compared with wild-type or parental gene: site-saturation and random mutagenesis
[4] = Atrazine clearing plate assay, low-level constitutive vector pCS150 in three E. coli strains; type: cell-based; conditions: E. coli JM109, DH10β and BL21 λDE3, 37° C.
Experimental: Random and site-saturated libraries were screened using LB agar plates supplemented with 200 μg.mL^−1 ampicillin, 1 μM IPTG and impregnated with 1 mg.mL^−1 atrazine (90% atrazine w/w; Gesaprim 900 WG, Syngenta). […] The level of activity was determined by the rate at which the clarification occurred.
The entire coding region for both TrzNcc3.2 and wild-type TrzN were moved from the inducible, high-level expression vector pETcc2 into a low-level, constitutive expression vector (pCS150, Scott et al., 2009). The resultant vectors were used to transform E. coli JM109, DH10β, and BL21 λDE3 cells. The six resultant strains were tested for their rates of clearing using the atrazine clearing plate assay.

[5] = read-out: Km for atrazine; cited from earlier work

Molecule	Hydrolysis by TrzN cc3.2 (TrzN cc3.2)	Relative Activity in TrzN cc3.2 (TrzN cc3.2)	further results
CCNc1nc(Cl)nc(NCC)n1 [Simazine, 6-chloro-N,N″-diethyl-1,3,5-triazine-2,4-diamine]	able to hydrolyse	1.36	Relative Activity in TrzN* (TrzN): 0.41
CCNc1nc(Cl)nc(NC(C)(C)C#N)n1 [Cyanozine, 2-[[4-chloro-6-(ethyamino)-1,3,5-triazin-2-yl]amino]-2-methylpropanenitrile]	able to hydrolyse	0.43	–
CCNc1nc(Cl)nc(NC(C)C)n1 [Atrazine, 6-chloro-N-ethyl-N′-(1-methylethyl)-1,3,5-triazine-2,4-diamine]	able to hydrolyse	1.36	Relative Activity in TrzN* (TrzN): 0.16
[Zn+2] [Zn^2+]	–	–	EC50 (Apo-TrzNcc3.2; read-out: ZnCl2 concentration at which half maximal activity was recovered): 2600 nM; Kd (Apo-TrzNcc3.2; read-out: dissociation constant for Zn^2+): 2600 nM
superoxide dismutase	–	–	Kd [1]: 0.01 nM
CC(C)Nc1nc(Cl)nc(NC(C)C)n1 [Propazine, 6-chloro-N,N′-bis(1-methylethyl)-1,3,5-triazine-2,4-diamine]	able to hydrolyse	0.86	–
CCNc1nc(NC(C)C)nc(SC)n1 [Ametryn, N2-ethyl-N4-isopropyl-6-methylthio-1,3,5-triazine-2,4-diamine]	able to hydrolyse	1	Relative Activity in TrzN* (TrzN): 1
CSc1nc(NC(C)C)nc(NC(C)C)n1 [Prometryn, N2,N4-diisopropyl-6-methylthio-1,3,5-triazine-2,4-diamine]	able to hydrolyse	1	–
CCN(CC)c1nc(Cl)nc(NC(C)C)n1 [Ipazine, 6-chloro-N,N-diethyl-N′-(1-methylethyl)-1,3,5-triazine-2,4-diamine]	able to hydrolyse	0.07	–
CCNc1nc(NCC)nc(SC)n1 [Simetryn, N2,N4-diethyl-6-methylthio-1,3,5-triazine-2,4-diamine]	able to hydrolyse	0.57	Relative Activity in TrzN* (TrzN): 0.14
CCNc1nc(Cl)nc(N(CC)CC)n1 [Trietazine, 6-chloro-N,N,N′-triethyl-1,3,5-triazine-2,4-diamine]	able to hydrolyse	0.04	–
B1	–	–	yield of partial purification [2]: 2.8 mg; Time to clear [3]: None; Time to clear ([3]; listed as trzNco): > 30 days; Time to clear [4]: > 12 days; Km [5]: 20 µM
B2	–	–	atrazine dechlorinase activity / clearing rate after substitution, compared with wild-type or parental gene [3]: improved activities
B3	–	–	atrazine dechlorinase activity / clearing rate after substitution, compared with wild-type or parental gene [3]: improved activities
B4	–	–	atrazine dechlorinase activity / clearing rate after substitution, compared with wild-type or parental gene [3]: improved activities
B5	–	–	atrazine dechlorinase activity / clearing rate after substitution, compared with wild-type or parental gene [3]: improved activities
B6	–	–	clearing phenotype ([3]; D38X site saturation library in a L131P A159V background): apparently improved clearing phenotypes
